# Patent US20230226079A1, “METHODS AND COMPOSITIONS FOR TREATMENT OF SOLID TUMORS” (Saint Louis University, priority 2022, published 2023)
# Entries after “also recorded” stand apart in the source; their conditions may differ.
# How the values were obtained:
# [1] = test system: JHU029 cells; test: Cytotoxicity assay (Cell Counting Kit-8) in JHU029 cells; format: cell-based; conditions: 48 h, treated for 48 h; read-out: IC50 dose, JHU029 cells
# Source text: Normal oral keratinocytes (NOK) (kindly gifted by Dr. Karl Mugner, Tuffs University, Boston, MA, USA) were maintained in Keratinocyte SFM medium supplemented with EGF and bovine pituitary extract (GIBCO, Life Technologies, Berkeley, MO, USA) and 1% penicillin/ streptomycin. HNC cell line Ca127 was purchased from the ATCC. JHU029 (JHU-29) and JHU022 (JHU-22) cell lines were procured from the Johns Hopkins University (Baltimore, MD, USA). The Ca127 and JHU022 cells were maintained in Dulbecco's Modified Eagle Medium (DMEM), and JHU029 cells were in RPMI1640 (Sigma, St. Louis, Mo., USA) media supplemented with 10% FBS and 1% penicillin/ streptomycin (Sigma-Aldrich, St. Louis, Mo., USA) in a humidified CO2 incubator. The cell lines are routinely tested in the Inventors' laboratory to rule out mycoplasma contamination using a commercial Mycoplasma Detection kit (MycoAlert™, Lonza, Morrisville, N.C., USA). Ca127 cells are tongue origin and JHU022 and JHU029 cells are from larynx origin.
# Bitter melon extract (BME) was prepared from the Chinese variety of young bitter melons (raw and green) as described previously (Rajamoorthi et al. (2013) PLoS ONE; 8, e78006). Briefly, BME was prepared by aqueous extraction from whole fruit without seeds using a household juicer at room temperature with subsequent centrifugation at 15000 g at 4 C for 30 min. BME was stored at −80 C for further analysis. […]
# [2] = test system: HNC (JHU022, JHU029, Ca127) cell lines; format: cell-based
# Method: Ca127, JHU029, JHU022 and NOK were seeded in 96 well-plate (5000 cells/well) and cells were treated with different concentration of M-I for 48 h. There were untreated control and DMSO treated vehicle control group for comparison. Cytotoxicity assay was performed using Cell Counting Kit-8 (Dojindo Molecular Technology, Rockville, Md., USA) according to manufacturer instruction.
# Due to their limited reported biology, the Inventors have selected a few triterpenoids and triterpene glycosides, based on their availability, for preliminary in vitro screening against HNC (JHU022, JHU029, Ca127) cell lines. The Inventors identified momordicine-I (M-I) as one of the chemical constituents at the retention time of 21.06 min in the BME (FIG. 1A). The M-I [C30H4804, PubChem CID: 14807332; IUPAC Name: (3S, 7S, 8S, 9R, 10R, 13R, 14S, 17R) 3,7-dihydroxy-17-(4-hydroxy-6-methylhept-5-en-2-yl)-4,4,13,14-tetramethyl-2,3,7,8,10,11, 12,15, 16,17-decahydro-1H-cyclopenta[a]phenanthrene-9-carbaldehyde] is a white crystalline solid that belongs to the cucurbitane-type triterpene class (FIG. 1B). […] Other compounds, mom ordicoside K (MK), and karavilagenin D (KD), were also examined on HNC cell cytotoxicity assay. These, two other compounds required much higher amounts (>50 ug/mL) even for -40% cell death.
# [3] = test system: Ca127 xenograft; test: Tumorigenicity assay, Ca127 xenograft model; format: in vivo, nude mice; conditions: M-I 30 mg/kg IP once a day, BME 30% in drinking water
# Method: JHU029 or Ca127 cells (1.5 10^6) containing 40% Matrigel were injected subcutaneously into the flank of BALB/c athymic nude mice (7-8 weeks old). When the palpable tumor was developed (>60 mm3), mice were divided into three groups randomly, 5 mice in each group. The control group was without any treatment. The BME group received 30% (v/v) BME through drinking water. M-I group received 30 mg/kg dose of M-I once in day, every day. Body weight was monitored, and tumor size was measured using a slide caliper and volume was calculated using the formula 1/2 L X W2. After animal sacrifice tumors were dissected out and snap frozen in liquid nitrogen for further analysis. All the animal experiments were carried out in accordance NIH guidelines, following a protocol approved (1017) by the Institutional Animal Care and Use Committee (IACUC) of Saint Louis University.
# [4] = test system: TNBC cell lines MDA-MB-231, BT459 and MDA-MB-468; test: TNBC cell cytotoxicity assays; format: cell-based
# Source text: The Inventors tested human MDA-MB-231 and mouse 4T1 cells in dose dependent manner (FIG. 8). […] The Inventors also tested other compounds in TNBC cell cytotoxicity assays, but these required much higher amounts (>[…]) even for ˜40% cell death.
# [5] = test system: normal mammary epithelial cells; test: Cytotoxicity in normal mammary epithelial cells; format: cell-based, human
# [6] = test system: NK3.3 cells; test: NK-cell viability; format: cell-based
# Method: FIG. 9 illustrates NK3.3 cells treated with bitter melon extract or M-I and cell viability was measured at 48h or 72h after treatment. Results shown are an average of three independent experiments. Small bar indicates standard error. (* p <0.05)
# NK cells are implicated in drug induced resistant cancer cells to drive tumor growth (Smalley et al., 2020). […] Bitter melon extract was used as a control. Control or M-I treated NK3.3 cells were also cocultured with MDA-MB-231 cells at 1:5 (Target:Effector) ratio for 24 h and stained for viable/dead cells. […] The apoptotic markers were further examined by Western blot analysis.
# [7] = literature; listed as Momordicine I; cited from earlier work
# [8] = test system: rat cardiac fibroblasts; conditions: cited from earlier work
# [9] = test system: insulin secretion; conditions: in vitro; cited from earlier work
smiles,measurement,setting,value
"CC(C)=CC(O)CC(C)[C@H]1CC[C@@]2(C)[C@@H]3[C@@H](O)C=C4[C@@H](CC[C@H](O)C4(C)C)[C@]3(C=O)CC[C@]12C (stereo partly drawn) [M-I, (3S, 7S, 8S, 9R, 10R, 13R, 14S, 17R) 3,7-dihydroxy-17-(4-hydroxy-6-methylhept-5-en-2-yl)-4,4,13,14-tetramethyl-2,3,7,8,10,11, 12,15, 16,17-decahydro-1H-cyclopenta[a]phenanthrene-9-carbaldehyde]",IC50,[1],< 8 µg/mL
same,inhibition of HNC cells in cytotoxicity assay,[2],inhibited HNS cells in a dose-dependent manner
same,reduction of tumor growth,[3],−50%
same,body weight,[3]; throughout the experiment,increasing body weight
same,cell growth of TNBC cell lines,[4],inhibits cell growth in a time-dependent manner
same,effect on human normal mammary epithelial cells,[5],minimum effect
same,NK-cell viability,[6],no cytotoxic effect
same,Reported Biology,[7],stimulate insulin; also recorded: cardiac fibrosis
same,high-glucose-induced cell proliferation and collagen synthesis,[8],inhibitory effects
same,insulin secretion,[9],stimulate insulin secretion
